# Source: patent publication US7378530B2, “Anti-cancer and anti-microbial 5-membered heterocyclic compounds” (Nereus Pharmaceuticals, Inc., priority 2005, dated 2008)
# How the values were obtained:
# [1] = tested on: Staphylococcus aureus - MRSA; assay: Antimicrobial assay, MIC (NCCLS M7-A5); format: cell-based, Staphylococcus aureus (methicillin resistant)
# Procedure: (§1) Minimum inhibitory concentrations (MICs) were determined according to the National Committee for Clinical Laboratory Standards (NCCLS) susceptibility test guideline M7-A5 (Ferraro, M. 2001 Methods for Dilution Antimicrobial Susceptibility Tests for Bacteria that Grow Aerobically; Approved Standard (NCCLS). National Committee for Clinical Laboratory Standards (NCCLS), Villanova, which is incorporated herein by reference in its entirety). The compound of formula VI was tested in DMSO while the compound of formula VII was tested in aqueous MeOH. The compound of formulae VIII and IX were tested in DMSO.
# H. inf. 49247 = assay: Antimicrobial assay, MIC (NCCLS M7-A5); format: cell-based; details: Haemophilus influenzae
# Procedure: as §1
# H. inf. 49766 = assay: Antimicrobial assay, MIC (NCCLS M7-A5); format: cell-based; details: Haemophilus influenzae
# Procedure: as §1
# PSSP = assay: Antimicrobial assay, MIC (NCCLS M7-A5); format: cell-based, Streptococcus pneumonia (penicillin sensitive); details: Streptococcus pneumoniae
# Procedure: as §1
# [2] = tested on: Staphylococcus aureus - MSSA; assay: Antimicrobial assay, MIC (NCCLS M7-A5); format: cell-based, Staphylococcus aureus (methicillin sensitive)
# Procedure: as §1
# PRSP = assay: Antimicrobial assay, MIC (NCCLS M7-A5); format: cell-based, Streptococcus pneumonia (penicillin resistant); details: Streptococcus pneumoniae
# Procedure: as §1
# [3] = tested on: Gram-negative microorganism Haemophilus influenzae; assay: Antimicrobial assays, summary for Haemophilus influenzae; format: cell-based
# Procedure: as §1
# E. c. MCR106 = assay: Antimicrobial assay, MIC (NCCLS M7-A5); format: cell-based
# Procedure: as §1
# E. c. 25922 = assay: Antimicrobial assay, MIC (NCCLS M7-A5); format: cell-based
# Procedure: as §1
# E. c. imp = assay: Antimicrobial assay, MIC (NCCLS M7-A5); format: cell-based
# Procedure: as §1
# Candida albicans = assay: Antimicrobial assay, MIC (NCCLS M7-A5); format: cell-based
# Procedure: as §1
# [4] = tested on: Gram-positive microorganisms tested; assay: Antimicrobial assays, summary for Gram-positive microorganisms; format: cell-based
# Procedure: as §1
# S. epi. 700582 = assay: Antimicrobial assay, MIC (NCCLS M7-A5); format: cell-based, Staphylococcus epidermis (multiple drug resistant); details: Staphylococcus
# Procedure: as §1
# S. epi. 700578 = assay: Antimicrobial assay, MIC (NCCLS M7-A5); format: cell-based, Staphylococcus epidermis (multiple drug resistant); details: Staphylococcus
# Procedure: as §1
# VRE = assay: Antimicrobial assay, MIC (NCCLS M7-A5); format: cell-based, Enterococcus faecium (vancomycin resistant); details: Enterococcus
# Procedure: as §1
# VSE = assay: Antimicrobial assay, MIC (NCCLS M7-A5); format: cell-based, Enterococcus faecalis (vancomycin sensitive); details: Enterococcus faecalis
# Procedure: as §1
# B16-F10 cells = assay: Growth inhibition of murine melanoma B16-F10 cells (resazurin fluorescence); format: cell-based
# Procedure: B16-F10 (ATCC; CRL-6475) a murine melanoma cell line was maintained in complete Dulbecco's Modification of Eagle's Medium (DMEM) (DMEM supplemented with 10% (v/v) Fetal bovine serum, 2 mM glutamine, 10 mM HEPES and Penicillin/Streptomycin at 100 IU/ml and 100 μg/ml respectively). The cells were cultured in an incubator at 37° C. in 5% CO2 and 95% humidified air. […] 20 mM stock solutions of formula VI were prepared in 100% DMSO. 10× concentrated serial dilutions of formula VI were prepared in complete media. Ten μl volumes of the serial dilutions were added to the test wells in triplicate resulting in final concentrations ranging from 20 μM to 6.32 nM. The plates were returned to the incubator for 48 hours. The final concentration of DMSO was 0.25% in all samples. Following 48 hours of drug exposure, 10 μl of 0.2 mg/ml resazurin (obtained from Sigma-Aldrich Chemical Co.) in Mg^2+, Ca^2+ free phosphate buffered saline was added to each well and the plates were returned to the incubator for 3-6 hours. Since living cells metabolize Resazurin, the fluorescence of the reduction product of Resazurin was measured using a Fusion microplate fluorometer (Packard Bioscience) with λex=535 nm and λem=590 nm filters. Resazurin dye in medium without cells was used to determine the background, which was subtracted from the data for all experimental wells. […]
compound,measurement,setting,value
CCCCCCC/C(C)=C/C(=O)CC(=N)OC(CCCC)C(=O)O (stereo not shown) [Formula IX],MIC,[1]; tested in DMSO,> 32 µg/mL
same,MIC,H. inf. 49247; tested in DMSO,> 32 µg/mL
same,MIC,H. inf. 49766; tested in DMSO,> 32 µg/mL
same,MIC,PSSP; tested in DMSO,> 32 µg/mL
same,MIC,[2]; tested in DMSO,24 µg/mL
CCCCCCC/C(C)=C/C(=O)C=C1NC(=O)C(CCCCC)O1 (stereo not shown) [Formula VII],MIC,PRSP; tested in aqueous MeOH,6 µg/mL
same,activity against the Gram-negative microorganism Haemophilus influenzae (statement in words),[3],weakly active
same,MIC,[1]; tested in aqueous MeOH,1.5 µg/mL
same,MIC,E. c. MCR106; tested in aqueous MeOH,> 32 µg/mL
same,MIC,E. c. 25922; tested in aqueous MeOH,> 32 µg/mL
same,MIC,E. c. imp; tested in aqueous MeOH,> 32 µg/mL
same,MIC,H. inf. 49247; tested in aqueous MeOH,12 µg/mL
same,MIC,H. inf. 49766; tested in aqueous MeOH,16 µg/mL
same,MIC,Candida albicans; tested in aqueous MeOH,> 32 µg/mL
same,MIC,PSSP; tested in aqueous MeOH,8 µg/mL
same,MIC,[2]; tested in aqueous MeOH,6 µg/mL
same,anti-bacterial activity versus the Gram-positive microorganisms tested (statement in words),[4],possess anti-bacterial activity
same,MIC,S. epi. 700582; tested in aqueous MeOH,0.75 µg/mL
same,MIC,S. epi. 700578; tested in aqueous MeOH,1.25 µg/mL
same,MIC,VRE; tested in aqueous MeOH,1.5 µg/mL
same,MIC,VSE; tested in aqueous MeOH,3 µg/mL
CCCCCCC/C(C)=C/C(=O)C=C1NC(=O)C(CCCC)O1 (stereo not shown) [Formula VI],MIC,PRSP; tested in DMSO,4.67 µg/mL
same,activity against the Gram-negative microorganism Haemophilus influenzae (statement in words),[3],weakly active
same,growth of B16-F10 tumor cells (statement in words),B16-F10 cells,inhibits the growth
same,EC50,"B16-F10 cells; Mus musculus, B16-F10, 48 hours drug exposure, mean ± standard deviation of three independent experiments, read-out: EC50 against B16-F10 cells",6 ± 2.6 µM
same,MIC,[1]; tested in DMSO,1.04 µg/mL
same,MIC,E. c. MCR106; tested in DMSO,> 32 µg/mL
same,MIC,E. c. 25922; tested in DMSO,> 32 µg/mL
same,MIC,E. c. imp; tested in DMSO,> 32 µg/mL
same,MIC,H. inf. 49247; tested in DMSO,12 µg/mL
same,MIC,H. inf. 49766; tested in DMSO,12 µg/mL
same,MIC,Candida albicans; tested in DMSO,> 32 µg/mL
same,MIC,PSSP; tested in DMSO,2.58 µg/mL
same,MIC,[2]; tested in DMSO,0.88 µg/mL
same,anti-bacterial activity versus the Gram-positive microorganisms tested (statement in words),[4],possess anti-bacterial activity
same,MIC,S. epi. 700582; tested in DMSO,0.54 µg/mL
same,MIC,S. epi. 700578; tested in DMSO,0.54 µg/mL
same,MIC,VRE; tested in DMSO,1.83 µg/mL
same,MIC,VSE; tested in DMSO,3.67 µg/mL
CCCCCC/C(C)=C/C(=O)C=C1NC(=O)C(CCCC)O1 (stereo not shown) [Formula VIII],activity against the Gram-negative microorganism Haemophilus influenzae (statement in words),[3],weakly active
same,MIC,[1]; tested in DMSO,3 µg/mL
same,MIC,H. inf. 49247; tested in DMSO,16 µg/mL
same,MIC,H. inf. 49766; tested in DMSO,5 µg/mL
same,MIC,PSSP; tested in DMSO,10 µg/mL
same,MIC,[2]; tested in DMSO,4 µg/mL
same,anti-bacterial activity versus the Gram-positive microorganisms tested (statement in words),[4],possess anti-bacterial activity
